PubChem BioAssay (NCI)
Values joined by “and” are separate entries in the source; they are usually repeats but may differ in a detail not shown here. Equal entries are not always repeated.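 96-well plates; 48 h exposure; 5 concentrations. Endpoints by linear interpolation between flanking doses. Not reached: highest tested concentration assigned. Here, GI50 denotes the concentration required for 50% inhibition of growth. At the TGI there is no net growth.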

Columns and labels:
Assay in all cases: inhibition of tumour cell growth, NCI panel, 48 h
SK-OV-3 ovarian = test system: SK-OV-3 ovarian
TK-10 renal = test system: TK-10 renal
NCI-H23 lung = test system: NCI-H23 lung
NCI-H226 lung = test system: NCI-H226 lung
OVCAR-3 ovarian = test system: OVCAR-3 ovarian
MALME-3M melanoma = test system: MALME-3M melanoma
SF-539 CNS = test system: SF-539 CNS
KM12 colon = test system: KM12 colon
DU-145 prostate = test system: DU-145 prostate
OVCAR-8 ovarian = test system: OVCAR-8 ovarian

SMILES | GI50 (SK-OV-3 ovarian) | TGI (SK-OV-3 ovarian) | GI50 (TK-10 renal) | TGI (TK-10 renal) | GI50 (NCI-H23 lung) | TGI (NCI-H23 lung) | GI50 (NCI-H226 lung) | TGI (NCI-H226 lung) | GI50 (OVCAR-3 ovarian) | TGI (OVCAR-3 ovarian) | GI50 (MALME-3M melanoma) | TGI (MALME-3M melanoma) | GI50 (SF-539 CNS) [µM] | TGI (SF-539 CNS) [µM] | GI50 (KM12 colon) [µM] | TGI (KM12 colon) | GI50 (DU-145 prostate) | TGI (DU-145 prostate) | GI50 (OVCAR-8 ovarian) | TGI (OVCAR-8 ovarian)
Cc1cnc(-c2ccc(-c3ccc(NC(=O)Nc4c(F)cc(F)cc4F)cc3F)c3c2C(=O)NC3)[nH]1 | 1.42 µM and 3.59 µM | 18.3 µM and 23.3 µM | 2.06 µM and 5.43 µM | 7.67 µM and 17.6 µM | 0.286 µM and 0.545 µM | 5.5 µM and 6.52 µM | 4.2 µM and 6.26 µM | 39.9 µM and 36.5 µM | 1.38 µM and 1.51 µM | 2.82 µM and 3.02 µM | 0.124 µM and 0.106 µM | 2.37 µM and 2.8 µM | 0.709 | 18.9 | < 0.01 | 2.58 µM and 6.87 µM | 1.1 µM and 1.42 µM | 4.64 µM and 7.36 µM | 1.25 µM and 2.08 µM | 3.77 µM and 9.45 µM
CN(C)CCCCNc1ccc(NCCCCN(C)C)c2c1C(=O)c1c(O)ccc(O)c1C2=O | 3.06 µM | 9.8 µM | 13.3 µM | 26.4 µM | 1.63 µM | 2.98 µM | 14.9 µM | 28.1 µM | 1.62 µM | 2.97 µM | 18.3 µM | 33.5 µM | 10.9 | 24.6 | 1.51 | 2.84 µM | 1.29 µM | 2.55 µM | 1.55 µM | 2.94 µM
CC(=O)ON=C1C=CC(=C(C#N)c2ccccc2)C=C1 | 6.41 µM | > 100 µM | 2.58 µM | 9.9 µM | 4.71 µM | > 47.4 µM | 2.88 µM | 9.36 µM | 1.03 µM | 8.41 µM | 4.01 µM | 20.1 µM | 0.671 | 11.2 | 0.357 | 1.71 µM | 0.704 µM | 2.86 µM | 2.07 µM | 15 µM
CCN(CC)CC(O)c1cc(-c2ccc(Cl)cc2)nc2c(C)c(Cl)ccc12 (stereo not drawn) | 1.71 µM | 3.28 µM | 1.85 µM | 3.28 µM | 1.78 µM | 3.3 µM | 1.65 µM | 3.18 µM | 1.51 µM | 2.9 µM | 1.93 µM | 3.98 µM | 1.49 | 3.03 | 1.72 | 3.14 µM | 1.7 µM | 3.08 µM |  | 
CC/C(=C(/c1ccc(OCCN(C)C)cc1)c1ccc(OC(=O)CCCCCCCCC(=O)c2c(C)[nH]c(/C=C3\N=C(c4ccc[nH]4)C=C3OC)c2C)cc1)c1ccccc1 | > 100 µM | > 100 µM | 21 µM | > 100 µM | 48.4 µM | > 100 µM | > 100 µM | > 100 µM | 10.9 µM | > 100 µM | 40.7 µM | > 100 µM | 10.7 | 61.6 | 5.25 | > 100 µM | 8.06 µM | > 100 µM | 9.06 µM | > 100 µM
Cc1c(Cl)c(C)c(Cl)c(O)c1Cl |  | > 100 µM |  | 82.3 µM |  | 94 µM |  | 63.3 µM |  | 66.5 µM |  | 54.3 µM |  | > 100 |  | > 100 µM |  | > 100 µM |  | > 100 µM
